Measurements taken from patent US20100061943A1, “ORAL HEALTH COMPOSITION COMPRISING ALCHEMILLA VULGARIS” (MARS INCORPORATED, priority 2006, published 2010).

Experiments:
Format in all cases: cell-based, cats
[1] = test system: Trypsin-like protease activity; test: Feline plate biofilm assay (PBA): protease activity (liquid BAPNA assay); details: 48 hours biofilm, extracts at 500 μg/ml, vs no active control
Procedure: (§1) The assay requires fresh supragingival feline dental plaque and saliva for inoculation. The inoculum consists of pooled dental plaque and unfiltered saliva sampled from a group of 18 cats, varying in age, breed and oral health status.
(§2) The plaque and saliva were resuspended in artificial saliva to form the inoculum of approximately 10% plaque and 30% saliva.
(§3) The plate biofilm assay (PBA) utilises a 24 well plate format in which biofilms, representative of feline dental plaque, are grown on hydroxyapatite (HA) discs. Prior to being introduced to the 24 well assay plate, each HA disc is preconditioned for 2 hours in a solution of 50% filter sterilised feline saliva in artificial feline saliva. The preconditioning step stimulates the formation of a salivary pellicle on the HA disc surface. […] Each HA disc, with the exception of those being used for biomass quantification, is placed into 500 μl PBS and vortex mixed for 30 seconds to remove biofilm growth from the disc into solution. […] Biofilm-covered HA discs that are being used for biomass quantification are removed from the 24 well assay plate and used directly in the crystal violet assay.
Trypsin-like protease activity was measured using the liquid BAPNA assay, a colourimetric assay in which the amount of trypsin present in a sample is directly proportional to the intensity of the colour developed. […]

[2] = test system: black pigmenting colonies (BPC); test: Feline plate biofilm assay (PBA): bacterial viable counts, black pigmenting colonies; details: 48 hours biofilm, extracts at 500 μg/ml, vs no active control
Procedure: as §1, §2
as §3, with “saliva.” for “saliva. The preconditioning step stimulates the formation of a salivary pellicle on the HA disc surface.”
(§4) Viable numbers of bacteria were quantified using Columbia blood agar plates supplemented with haemin and menadione. Aerobes were counted after incubation for 2 days and anaerobes, including black pigmenting colonies (BPC), were counted after incubation at appropriate conditions for 9 days. […]

Aerobes = test: Feline plate biofilm assay (PBA): bacterial viable counts, aerobes; details: 48 hours biofilm, extracts at 500 μg/ml, vs no active control
Procedure: as §1, §2
as §3, with “saliva.” for “saliva. The preconditioning step stimulates the formation of a salivary pellicle on the HA disc surface.”
as §4

anaerobes = test: Feline plate biofilm assay (PBA): bacterial viable counts, anaerobes; details: 48 hours biofilm, extracts at 500 μg/ml, vs no active control
Procedure: as §1, §2
as §3, with “saliva.” for “saliva. The preconditioning step stimulates the formation of a salivary pellicle on the HA disc surface.”
as §4

[3] = test system: biofilms representative of feline dental plaque; test: Feline plate biofilm assay (PBA): biomass quantification (crystal violet assay); details: 48 hours biofilm, OD595, extracts at 500 μg/ml, vs no active control
Procedure: as §1, §2, §3
The total amount of biofilm grown on the HA discs was quantified using the crystal violet staining method. Biomass was represented as being directly proportional to the OD reading at 595 nm (OD595) of the samples compared to controls. […]

Structure (SMILES): [H]/N=C(\N/C(=N/[H])NCCCCCCNC(=N)NC(=N)Nc1ccc(Cl)cc1)Nc1ccc(Cl)cc1 [Chlorhexidine, chlorhexidine]
- Protease (% reduction) [1]: 90.0%
- BPC (Log 10 reduction) [2]: 4.86 Log 10
- Aerobe (Log 10 reduction) (Aerobes): 1.91 Log 10
- Anaerobe (Log 10 reduction) (anaerobes): 2.16 Log 10
- Biomass (% reduction) [3]: 79.0%
